In patent US20220348558A1, “INHIBITORS OF ENCEPHALITIC ALPHAVIRUSES” (priority 2019, published 2022):

Columns and labels:
WEEV California = assay: microbe, parasite or virus in culture; assay type: cell-based; conditions: Western equine encephalitis virus, Vero 76, 48 h, read-out: WEEV California EC50 nM
VEEV TC83 = assay: microbe, parasite or virus in culture; assay type: cell-based; conditions: Venezuelan equine encephalitis virus, Vero 76, 48 h, read-out: VEEV TC83 EC50 nM

| Compound | EC50 (WEEV California) [nM] | EC50 (VEEV TC83) [nM] |
| --- | --- | --- |
| COc1ccc(-c2cc(C#N)cc3c(=O)n(-c4ccc(OC)c(F)c4)c(C4CCCN4)nc23)cc1 (centres unmarked) [Example 147, 3-(3-Fluoro-4-methoxyphenyl)-8-(4-methoxyphenyl)-4-oxo-2-(pyrrolidin-2-yl)-3,4-dihydroquinazoline-6-carbonitrile] | 1 to 50 | 1 to 50 |
| Cc1cc(-c2cc(C#N)cc3c(=O)n(-c4cc(F)c(NCC5(CO)COC5)c(F)c4)c(C4CCCN4)nc23)cc(C)n1 (centres unmarked) [Example 164, 3-(3,5-difluoro-4-(((3-(hydroxymethyl)oxetan-3-yl)methyl)amino)phenyl)-8-(2,6-dimethylpyridin-4-yl)-4-oxo-2-(pyrrolidin-2-yl)-3,4-dihydroquinazoline-6-carbonitrile] | 501 to 1000 | 501 to 1000 |
| COc1ccc(-n2c(C3CCCN3)nc3c(-c4ccc(O)nc4)cc(C#N)cc3c2=O)cc1F (centres unmarked) [Example 131, 3-(3-fluoro-4-methoxyphenyl)-8-(6-hydroxypyridin-3-yl)-4-oxo-2-(pyrrolidin-2-yl)-3,4-dihydroquinazoline-6-carbonitrile] | 1 to 50 | 1 to 50 |
| COc1ccc(-n2c(C3CCCN3)nc3c(-c4cnc(C)c(C)c4)cc(C#N)cc3c2=O)cc1F (centres unmarked) [Example 137, 8-(5,6-dimethylpyridin-3-yl)-3-(3-fluoro-4-methoxyphenyl)-4-oxo-2-(pyrrolidin-2-yl)-3,4-dihydroquinazoline-6-carbonitrile] | 1 to 50 | 1 to 50 |
| COc1ccc(-n2c([C@H]3CCNC3)nc3c(C)cc([N+](=O)[O-])cc3c2=O)cc1F [Example 65, (S)-3-(3-fluoro-4-methoxyphenyl)-8-methyl-6-nitro-2-(pyrrolidin-3-yl) quinazolin-4 (3H)-one] | 51 to 150 | 51 to 150 |
| O=c1c2cc([N+](=O)[O-])ccc2nc(C2CCCN2)n1-c1ccccc1 (centres unmarked) [Example 1, 6-nitro-3-phenyl-2-(pyrrolidin-2-yl) quinazolin-4 (3H)-one] | 51 to 150 | 51 to 150 |
| O=c1c2cc([N+](=O)[O-])ccc2nc([C@H]2CCCN2)n1-c1ccc(OC(F)(F)F)cc1 [Example 44, (R)-6-nitro-2-(pyrrolidin-2-yl)-3-(4-(trifluoromethoxy)phenyl)quinazolin-4 (3H)-one] | > 1000 | > 1000 |
| COc1ccc(-n2c([C@H]3CCC(=O)N3)nc3c(-c4ccc(C)nc4)cc(C#N)cc3c2=O)cc1F [Example 121, (R)-3-(3-fluoro-4-methoxyphenyl)-8-(6-methylpyridin-3-yl)-4-oxo-2-(5-oxopyrrolidin-2-yl)-3,4-dihydroquinazoline-6-carbonitrile] | > 1000 | > 1000 |
| COc1ccc(-n2c(C3CCCN3)nc3c(-c4ccc(O)cc4)cc(C#N)cc3c2=O)cc1F (centres unmarked) [Example 158, 3-(3-Fluoro-4-methoxyphenyl)-8-(4-hydroxyphenyl)-4-oxo-2-(pyrrolidin-2-yl)-3,4-dihydroquinazoline-6-carbonitrile] | 501 to 1000 | 501 to 1000 |
| COc1ccc(-n2c(C3CCCN3)nc3ccc([N+](=O)[O-])cc3c2=O)cc1 (centres unmarked) [Example 8, 3-(4-methoxyphenyl)-6-nitro-2-(pyrrolidin-2-yl) quinazolin-4 (3H)-one] | 1 to 50 | 1 to 50 |
| COc1ccc(-n2c([C@H]3C[C@H](O)CN3)nc3c(-c4ccc(C)nc4)cc(C#N)cc3c2=O)cc1F [Example 122, 3-(3-fluoro-4-methoxyphenyl)-2-((2R,4S)-4-hydroxypyrrolidin-2-yl)-8-(6-methylpyridin-3-yl)-4-oxo-3,4-dihydroquinazoline-6-carbonitrile] | 51 to 150 | 1 to 50 |
| COc1ccc(-n2c(C3CCCN3)nc3c(-c4ccc(OC(F)(F)F)cc4)cc(C#N)cc3c2=O)cc1F (centres unmarked) [Example 151, 3-(3-Fluoro-4-methoxyphenyl)-4-oxo-2-(pyrrolidin-2-yl)-8-(4-(trifluoromethoxy)phenyl)-3,4-dihydroquinazoline-6-carbonitrile] | 1 to 50 | 1 to 50 |
| Cc1cccc(-n2c([C@H]3CCCN3)nc3ccc([N+](=O)[O-])cc3c2=O)c1 [Example 36, (R)-6-nitro-2-(pyrrolidin-2-yl)-3-(m-tolyl)quinazolin-4 (3H)-one] | 501 to 1000 | 51 to 150 |
| Cc1cc([N+](=O)[O-])cc2c(=O)n(-c3ccc(Cl)c(F)c3)c([C@H]3CCCN3)nc12 [Example 60, (R)-3-(4-chloro-3-fluorophenyl)-8-methyl-6-nitro-2-(pyrrolidin-2-yl) quinazolin-4 (3H)-one] | 1 to 50 | 1 to 50 |
| N#Cc1cc(-c2ccc(C(F)(F)F)nc2)c2nc([C@H]3CCCN3)n(-c3ccc(O)c(F)c3)c(=O)c2c1 [Example 168, (R)-3-(3-fluoro-4-hydroxyphenyl)-4-oxo-2-(pyrrolidin-2-yl)-8-(6-(trifluoromethyl)pyridin-3-yl)-3,4-dihydroquinazoline-6-carbonitrile] | 151 to 500 | 51 to 150 |
| COc1ccc(-n2c([C@@H]3C[C@@H](F)CN3)nc3c(C)cc([N+](=O)[O-])cc3c2=O)cc1 [Example 63, 2-((2S,4R)-4-fluoropyrrolidin-2-yl)-3-(4-methoxyphenyl)-8-methyl-6-nitroquinazolin-4 (3H)-one] | > 1000 | > 1000 |

| Compound | EC50 (WEEV California) [nM] | EC50 (VEEV TC83) [nM] |
| --- | --- | --- |
| COc1ccc(-n2c([C@H]3CCCN3)nc3c(Br)cc(C#N)cc3c2=O)cc1F [Example 96, (R)-8-bromo-3-(3-fluoro-4-methoxyphenyl)-4-oxo-2-(pyrrolidin-2-yl)-3,4-dihydroquinazoline-6-carbonitrile] | 1 to 50 | 1 to 50 |
| COc1c(F)cc(-n2c(C34CC(CN3)C4)nc3c(-c4ccnc(C)c4)cc(C#N)cc3c2=O)cc1F [Example 173, 2-(2-azabicyclo[2.1.1]hexan-1-yl)-3-(3,5-difluoro-4-methoxyphenyl)-8-(2-methylpyridin-4-yl)-4-oxo-3,4-dihydroquinazoline-6-carbonitrile] | 51 to 150 | 51 to 150 |
| COc1ccc(-n2c([C@@H]3CCCN3)nc3c(C)cc(C#N)cc3c2=O)cc1 [Example 51, (S)-3-(4-methoxyphenyl)-8-methyl-4-oxo-2-(pyrrolidin-2-yl)-3,4-dihydroquinazoline-6-carbonitrile] | 501 to 1000 | 151 to 500 |
| COCCOc1c(F)cc(-n2c(C3CCCN3)nc3c(-c4cc(C)nc(C)c4)cc(C#N)cc3c2=O)cc1F (centres unmarked) [Example 162, 3-(3,5-difluoro-4-(2-methoxyethoxy)phenyl)-8-(2,6-dimethylpyridin-4-yl)-4-oxo-2-(pyrrolidin-2-yl)-3,4-dihydroquinazoline-6-carbonitrile] | 51 to 150 | 51 to 150 |
| COc1c(F)cc(-n2c(C3CCCN3)nc3c(-c4ccc(C#CC(C)(C)O)cc4)cc(C#N)cc3c2=O)cc1F (centres unmarked) [Example 170, 3-(3,5-difluoro-4-methoxyphenyl)-8-(4-(3-hydroxy-3-methylbut-1-yn-1-yl)phenyl)-4-oxo-2-(pyrrolidin-2-yl)-3,4-dihydroquinazoline-6-carbonitrile] | 51 to 150 | 51 to 150 |
| COc1ccc(-n2c([C@@H]3CCCN3)nc3c(C)cc([N+](=O)[O-])cc3c2=O)cc1F [Example 69, (S)-3-(3-fluoro-4-methoxyphenyl)-8-methyl-6-nitro-2-(pyrrolidin-2-yl) quinazolin-4 (3H)-one] | 51 to 150 | 151 to 500 |
| COc1cccc(-n2c(C3CCCN3)nc3ccc([N+](=O)[O-])cc3c2=O)c1 (centres unmarked) [Example 32, 3-(3-methoxyphenyl)-6-nitro-2-(pyrrolidin-2-yl)quinazolin-4 (3H)-one] | > 1000 | > 1000 |
| COc1ccc(-n2c([C@H]3CCCN3)nc3c(-c4cncc(C#N)c4)cc([N+](=O)[O-])cc3c2=O)cc1F [Example 94, (R)-3-(3-fluoro-4-methoxyphenyl)-8-(5-cyanopyridin-3-yl)-6-nitro-2-(pyrrolidin-2-yl) quinazolin-4 (3H)-one] | 51 to 150 | 1 to 50 |
| COc1ccc(-n2c([C@@H](C)N(C)C)nc3ccc([N+](=O)[O-])cc3c2=O)cc1 [Example 209, (R)-2-(1-(dimethylamino)ethyl)-3-(4-methoxyphenyl)-6-nitroquinazolin-4 (3H)-one] | 151 to 500 | 51 to 150 |
| COc1ccc(-c2cc(C#N)cc3c(=O)n(-c4ccc(OC)c(F)c4)c(C4CCCN4)nc23)cn1 (centres unmarked) [Example 125, 3-(3-fluoro-4-methoxyphenyl)-8-(6-methoxypyridin-3-yl)-4-oxo-2-(pyrrolidin-2-yl)-3,4-dihydroquinazoline-6-carbonitrile] | 1 to 50 | 1 to 50 |
| COc1ccc(-n2c([C@H]3CCCN3)nc3c(C(F)(F)F)cc(C#N)cc3c2=O)cc1 [Example 74, (R)-3-(4-methoxyphenyl)-4-oxo-2-(pyrrolidin-2-yl)-8-(trifluoromethyl)-3,4-dihydroquinazoline-6-carbonitrile] | 1 to 50 | 1 to 50 |
| COc1c(F)cc(-n2c(C3CCCN3)nc3c(-c4ccnc(C)c4)cc(C#N)cc3c2=O)cc1F (centres unmarked) [Example 155, 3-(3,5-Difluoro-4-methoxyphenyl)-8-(2-methylpyridin-4-yl)-4-oxo-2-(pyrrolidin-2-yl)-3,4-dihydroquinazoline-6-carbonitrile] | 1 to 50 | 1 to 50 |
| COc1ccc(-n2c([C@H]3CCCN3)nc3c(-c4ccc(C)nc4)cc(C#N)cc3c2=O)cc1F [Example 102, (R)-3-(3-fluoro-4-methoxyphenyl)-8-(6-methylpyridin-3-yl)-4-oxo-2-(pyrrolidin-2-yl)-3,4-dihydroquinazoline-6-carbonitrile] | 1 to 50 | 1 to 50 |
| COc1cc(F)ccc1-n1c([C@H]2CCCN2)nc2ccc([N+](=O)[O-])cc2c1=O [Example 26, (R)-3-(2-methoxy-4-fluorophenyl)-6-nitro-2-(pyrrolidin-2-yl) quinazolin-4 (3H)-one] | > 1000 | > 1000 |
| O=c1c2cc([N+](=O)[O-])ccc2nc(C2CCCN2)n1-c1ccccc1F (centres unmarked) [Example 41, 3-(2-fluorophenyl)-6-nitro-2-(pyrrolidin-2-yl)quinazolin-4 (3H)-one] | > 1000 | 501 to 1000 |
